Experimental data: patent publication US20020177625A1, “Class of glaucoma drugs to enhance aqueous humor outflow and lower intra-ocular pressure” (The Regents of the University of California, a California …, priority 2001, published 2002)

Tested on: human TM cells
Assay: Intracellular volume of human TM cells (14C-urea/14C-sucrose water space or COULTER COUNTER electronic cell sizing), isotonic medium
Format: cell-based
Conditions: human TM cells
Experimental: The intracellular volume of human and bovine TM cells was evaluated by two methods: 1) radioisotopic evaluation of TM monolayer intracellular water space using ^14C-urea and ^14C-sucrose as markers of total and extracellular space, respectively; and 2) electronic cell sizing of suspended TM cells, using a COULTER COUNTER™ assay (Coulter Electronics, Ltd., Hialeah, Fla.). Details of these methods have been described previously by O'Donnell (O'Donnell, M. E., supra, 1993) the entirety of which is incorporated herein by reference.
By the first method, cell monolayers were preequilibrated for 30 minutes in Hepes MEM at 37° C. in an air atmosphere, then incubated for 20 minutes in Hepes MEM containing 0 or 10 μM bumetamide, ethacrynic acid, or other agents to be tested, and finally incubated for 10 minutes in the same medium containing either ^14C-urea or ^14C-sucrose (both at 1 μCi/ml). Monolayers were then rinsed with isotonic ice-cold MgCl2 and radioactivity of SDS extracts determined by liquid scintillation. Specific activities (counts per minute/ml) of ^14C-urea and ^14C-sucrose in the assay medium were determined and used to calculate water space associated with trapped radioactivity (expressed as μl/mg protein. Intracellular volume was calculated as the difference between the water space determined for ^14C-urea (a marker for intracellular plus trapped extracellular space) and ^14C-sucrose (a marker for trapped extracellular space).
By the second method, TM cells were trypsinized briefly in Ca-free medium, then rinsed with medium containing trypsin inhibitor and suspended in Hepes MEM. Mean cell volumes were then analyzed by electronic cell sizing on a COULTER COUNTER™ radioassay (Model ZM) with channelizer (C256), using at least 50,000 cells per data point and an orifice diameter of 140 μm. Aliquots of suspended cells were diluted into Hepes MEM containing the tonicity and/or agents to be evaluated. Mean cell volumes of each suspension aliquot were followed over time, starting at 1 minute after addition of cells to the assay media. Cell suspensions were maintained at 37° C. throughout the assay period. Absolute volumes (picoliters/cell) were calculated from distribution curves of cell diameter, using a standard curve generated by polystyrene latex beads of known diameter.
Human TM cells were exposed to isotonic medium ±niflumic acid (10 or 100 μM)±10 μM bumetamide. Cell volume was assessed by COULTER COUNTER™ electronic cell sizing over the time course shown, using TM cells in suspension. Note that niflumic acid (NA) alone decreases volume of the TM cells and that exposing the cells to NA plus bumetamide causes a further decrease in TM cell volume. Data represent means of two experiments (all conditions shown tested in both experiments).

## O=C(O)c1cccnc1Nc1cccc(C(F)(F)F)c1 [niflumic acid]
Niflumic acid 10 μM
  TM cell volume in isotonic medium (resting volume): decreased
Niflumic acid 100 μM
  TM cell volume in isotonic medium (resting volume): decreased
